Experimental data: US9765105B2, “Macrolide compound” (Pulike Biological Engineering, Inc., priority 2013, dated 2017)

Legend:
Assay in all cases: in vitro susceptibility, MIC by mini broth dilution
Type in all cases: cell-based
[1] = system: Staphylococcus aureus CVCC26003; conditions: strain CVCC26003
Protocol: (§1) in vitro tests of susceptibility of the compounds according to the present disclosure against bacterial strains commonly used in laboratories. In accordance with the Performance Standards for Antimicrobial Disk Susceptibility Tests: Approved Standard published by the US National Committee for Clinical Laboratory Standards, the antibacterial activities of compounds prepared according to examples 5 to 187 were tested. The MICs (minimum inhibitory concentration) of the medicaments prepared according to the examples on the following bacterial strains were measured through mini broth dilution technique. Staphylococcus aureus CVCC26003, Streptococcus equines CVCC556. Actinobacillus pleuropneumoniae CVCC262, Haemophilus parasuis, and Pasteurella multocida CVCC399, which were purchased from the Control Institute of Veterinary Bioproducts and Pharmaceuticals, China. 4.1.1 Culture Medium for Staphylococcus aureus CVCC26003 Liquid culture medium: CAMHB. […] Solid culture medium: NINA prepared according to the specification of the final product. The strains were taken out of a refrigerator at −20° C. to be revived, and were spreaded by streaking on the solid culture medium with an inoculating loop. The inoculated culture medium was cultured at 35° C. in a constant temperature incubator for 20 h. […] were selected from a well-grown culture plate and streaked on the solid culture medium. The inoculated culture medium was cultured at 35° C. in the constant temperature incubator for 20 h. […] A 96-well plate was used, and 100 μl of DMSO was added into each of wells 2 to 11, and 200 μl of ready-prepared medicament solution was added into the 1st well, 100 μl of the medicament solution was extracted from the 1st well and added into the 2nd well. Double dilution was performed until the 11th well, thereby forming 11 gradients. In this case, compound of parent plate was prepared. 3 μl of double diluted medicament solution was extracted with a 12-channel pipettor and added into wells 1-11 of a new disposable 96-well culture plate. The 12th well thereof is a control well. For each medicament, there are two adjacent rows which are parallel. The transferred compound plate was reserved for later use. […] The dilution ratio was recorded, and the bacterial liquid for the tests was diluted according to the recorded dilution ratio. Subsequently, the bacterial suspension and the liquid culture medium were diluted in the proportion of 1:200. The diluted solution was reserved for later use.

Haemophilus parasuis = system: Haemophilus parasuis
Protocol: as §1, with “China. 4.1.2” for “China. 4.1.1”, “Culture Media” for “Culture Medium”, “for the Rest Four Bacterial Strains.” for “for Staphylococcus aureus CVCC26003”, “medium:” for “medium: CAMHB.”, “medium: […]” for “medium: NINA prepared according to the specification of the final product.”

[2] = system: Actinobacillus pleuropneumoniae CVCC262; conditions: strain CVCC262
Protocol: as §1, with “China. 4.1.2” for “China. 4.1.1”, “Culture Media” for “Culture Medium”, “for the Rest Four Bacterial Strains.” for “for Staphylococcus aureus CVCC26003”, “medium:” for “medium: CAMHB.”, “medium: […]” for “medium: NINA prepared according to the specification of the final product.”

[3] = system: Pasteurella multocida CVCC399; conditions: strain CVCC399
Protocol: as §1, with “China. 4.1.2” for “China. 4.1.1”, “Culture Media” for “Culture Medium”, “for the Rest Four Bacterial Strains.” for “for Staphylococcus aureus CVCC26003”, “medium:” for “medium: CAMHB.”, “medium: […]” for “medium: NINA prepared according to the specification of the final product.”

[4] = system: Streptococcus equines CVCC556; conditions: strain CVCC556
Protocol: as §1, with “China. 4.1.2” for “China. 4.1.1”, “Culture Media” for “Culture Medium”, “for the Rest Four Bacterial Strains.” for “for Staphylococcus aureus CVCC26003”, “medium:” for “medium: CAMHB.”, “medium: […]” for “medium: NINA prepared according to the specification of the final product.”

| SMILES | MIC values, Staphylococcus aureus CVCC26003 [1] | MIC values, Haemophilus parasuis (Haemophilus parasuis) | MIC values, Actinobacillus pleuropneumoniae CVCC262 [2] [ug/mi] | MIC values, Pasteurella multocida CVCC399 [3] | MIC values, Streptococcus equines CVCC556 [4] |
| --- | --- | --- | --- | --- | --- |
| CC[C@H]1OC(=O)[C@H](C)[C@@H](O[C@H]2C[C@@](C)(OC)[C@](O)(CNCCNC)[C@H](C)O2)[C@H](C)[C@@H](O[C@@H]2O[C@H](C)C[C@H](N(C)C)[C@H]2O)[C@](C)(O)C[C@@H](C)NC[C@H](C)[C@@H](O)[C@]1(C)O [syzx-29] | 1 ug/mi | 0.5 ug/mi | 16 | 2 ug/mi | 0.5 ug/mi |
| CC[C@H]1OC(=O)[C@H](C)[C@@H](O[C@H]2C[C@@](C)(OC)[C@](O)(CNCc3ccc(F)cc3F)[C@H](C)O2)[C@H](C)[C@@H](O[C@@H]2O[C@H](C)C[C@H](N(C)C)[C@H]2O)[C@](C)(O)C[C@@H](C)NC[C@H](C)[C@@H](O)[C@]1(C)O [syzx-31] | ≦0.25 ug/mi | ≦0.25 ug/mi | 1 | ≦0.25 ug/mi | ≦0.25 ug/mi |
| CC[C@H]1OC(=O)[C@H](C)[C@@H](O[C@H]2C[C@@](C)(OC)[C@](O)(CNc3ccc(Cl)nn3)[C@H](C)O2)[C@H](C)[C@@H](O[C@@H]2O[C@H](C)C[C@H](N(C)C)[C@H]2O)[C@](C)(O)C[C@@H](C)NC[C@H](C)[C@@H](O)[C@]1(C)O [syzx-32, (2R,3S,4R,5S,8R,10R,11R,12S,13S,14R)-13-[(2,6-dideoxy-3-C-methyl-3-O-methyl-4-C-[(6-chloro-pyridazin-3-yl-amino)-methyl]-α-L-ribopyranosyl)oxy]-2-ethyl-3,4,10-trihydroxy-3,5,8,10,12,14-hexamethyl-11-[[3,4,6-trideoxy-3-(dimethylamino)-β-D-xylo-hexopyranosy]oxy]-1-oxa-7-azacyclopentadecan-15-one] | 0.5 ug/mi | 0.25 ug/mi | 0.5 | 1 ug/mi | 0.25 ug/mi |
| CC[C@H]1OC(=O)[C@H](C)[C@@H](O[C@H]2C[C@@](C)(OC)[C@](O)(CNC(C)CCc3ccccc3)[C@H](C)O2)[C@H](C)[C@@H](O[C@@H]2O[C@H](C)C[C@H](N(C)C)[C@H]2O)[C@](C)(O)C[C@@H](C)NC[C@H](C)[C@@H](O)[C@]1(C)O (stereo partly drawn) [syzx-34, (2R,3S,4R,5S,8R,10R,11R,12S,13S,14R)-13-[(2,6-dideoxy-3-C-methyl-3-O-methyl-4-C-[[(1-methyl-3-phenyl)propyl-amino]-methyl]-α-L-ribopyranosyl)oxy]-2-ethyl-3,4,10-trihydroxy-3,5,8,10,12,14-hexamethyl-11-[[3,4,6-trideoxy-3-(dimethylamino)-β-D-xylo-hexopyranosy]oxy]-1-oxa-7-azacyclopentadecan-15-one] | 8 ug/mi | 4 ug/mi | 8 | 16 ug/mi | 0.5 ug/mi |
